Tested on: Japanese bulrush
Test: Test Example 1: herbicidal activity, application before weed generation under submerged conditions (Table 16, symbol B)
Format: in vivo, Japanese bulrush (Schoenoplectus juncoides)
Conditions: amount of applied herbicide 320 g/ha
In short: (§1)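 Emulsion formulation, water-diluted to set dose, was put onto the flooded surface (4 cm depth, alluvial soil) the same day weeds were sown and 2.5-leaf rice transplanted. After 3 weeks at 25-30 °C under glass, each species was rated 0 (≤5% kill) to 5 (≥90% kill).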

Row | Compound | Herbicidal effect, B: Japanese bulrush
1 | COc1ccccc1-c1sc2cc(OCC3CCCO3)ccc2c1-c1c(O)c(C)nn(C)c1=O (stereo not drawn) [3-133] | 3 (Herbicidal rate of 40% or more and less than 70%)
2 | COc1ccccc1-c1sc2cc(C)c(C)cc2c1-c1c(O)c(C)nn(C)c1=O [5-090] | 3 (Herbicidal rate of 40% or more and less than 70%)
3 | CCCC(=O)Oc1c(C)nn(C)c(=O)c1-c1c(-c2ccccc2OCC)sc2cc(C)c(C)cc12 [5-095] | 4 (Herbicidal rate of 70% or more and less than 90%)

Tested on: southern crabgrass
Test: Test Example 5: herbicidal effect by foliage application, plastic box (Table 20, symbol F)
Format: in vivo, southern crabgrass (Digitaria ciliaris)
Conditions: foliage application, 320 g/ha, three weeks after application
In short: (§2)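 Post-emergence foliar test in sterilized diluvial soil. Compound applied as water-diluted emulsion at a predetermined rate to 14-day-old plants; evaluation at three weeks.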

Row | Compound | F: southern crabgrass, herbicidal effect grade | herbicidal effect on southern crabgrass (F)
4 | COc1ccccc1-c1sc2cc(OCC3CCCO3)ccc2c1-c1c(O)c(C)nn(C)c1=O (stereo not drawn) [3-133] | 4 (Herbicidal rate of 70% or more and less than 90%) | 
5 | COc1ccccc1-c1sc2cc(C)c(C)cc2c1-c1c(O)c(C)nn(C)c1=O [5-090] |  | 1 (Herbicidal rate of 5% or more and less than 20%)
6 | CCCC(=O)Oc1c(C)nn(C)c(=O)c1-c1c(-c2ccccc2OCC)sc2cc(C)c(C)cc12 [5-095] |  | 5 (Herbicidal rate of 90% or more (almost completely withered))

Tested on: late watergrass
Test: Test Example 2: herbicidal activity, application during weed generation under submerged conditions (Table 17, symbol A)
Format: in vivo, late watergrass (Echinochloa oryzicola)
Conditions: AAH 320 g/ha; application during weed generation, submerged conditions
In short: (§3)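 In this pot test, flooded alluvial soil (water depth 4 cm) holds all three species sown as a mixture. Once seedlings have one to two leaves, the compound's emulsion, thinned with water to the intended dose, is poured on the water; grading follows after three weeks on the earlier criteria.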

Row | Compound | herbicidal effect rating, A: late watergrass
7 | COc1ccccc1-c1sc2cc(OCC3CCCO3)ccc2c1-c1c(O)c(C)nn(C)c1=O (stereo not drawn) [3-133] | 2 (Herbicidal rate of 20% or more and less than 40%)
8 | COc1ccccc1-c1sc2cc(C)c(C)cc2c1-c1c(O)c(C)nn(C)c1=O [5-090] | 0 (Herbicidal rate of 5% or less (almost no effect))
9 | CCCC(=O)Oc1c(C)nn(C)c(=O)c1-c1c(-c2ccccc2OCC)sc2cc(C)c(C)cc12 [5-095] | 4 (Herbicidal rate of 70% or more and less than 90%)

Tested on: redroot pigweed
Test: Test Example 4: herbicidal effect by soil treatment (Table 19, symbol N)
Format: in vivo, redroot pigweed (Amaranthus retroflexus)
Conditions: amount of applied herbicide 320 g/ha
In short: (§4)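 Emulsion of test compound, water-diluted to predetermined amount, sprayed on soil after sowing (seed depth ~1.5 cm, sterilized diluvial soil). Greenhouse, 25–30° C. Effect graded at three weeks post-spray.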

Row | Compound | Herbicidal effect by soil treatment, N: redroot pigweed | N: redroot pigweed, herbicidal effect grade
10 | COc1ccccc1-c1sc2cc(OCC3CCCO3)ccc2c1-c1c(O)c(C)nn(C)c1=O (stereo not drawn) [3-133] | 5 (Herbicidal rate of 90% or more (almost completely withered)) | 
11 | COc1ccccc1-c1sc2cc(C)c(C)cc2c1-c1c(O)c(C)nn(C)c1=O [5-090] |  | 0 (Herbicidal rate of 5% or less (almost no effect))
12 | CCCC(=O)Oc1c(C)nn(C)c(=O)c1-c1c(-c2ccccc2OCC)sc2cc(C)c(C)cc12 [5-095] |  | 0 (Herbicidal rate of 5% or less (almost no effect))

Tested on: redroot pigweed
Test: Test Example 5: herbicidal effect by foliage application, plastic box (Table 20, symbol N)
Format: in vivo, redroot pigweed (Amaranthus retroflexus)
Conditions: foliage application, 320 g/ha, three weeks after application
In short: as §2

Row | Compound | N: redroot pigweed, herbicidal effect grade
13 | COc1ccccc1-c1sc2cc(OCC3CCCO3)ccc2c1-c1c(O)c(C)nn(C)c1=O (stereo not drawn) [3-133] | 5 (Herbicidal rate of 90% or more (almost completely withered))

Tested on: windgrass
Test: Test Example 4: herbicidal effect by soil treatment (Table 19, symbol L)
Format: in vivo, windgrass (Apera spica-venti)
Conditions: amount of applied herbicide 320 g/ha
In short: as §4

Row | Compound | Herbicidal effect by soil treatment, L: windgrass | L: windgrass, herbicidal effect grade
14 | COc1ccccc1-c1sc2cc(OCC3CCCO3)ccc2c1-c1c(O)c(C)nn(C)c1=O (stereo not drawn) [3-133] | 5 (Herbicidal rate of 90% or more (almost completely withered)) | 
15 | COc1ccccc1-c1sc2cc(C)c(C)cc2c1-c1c(O)c(C)nn(C)c1=O [5-090] |  | 3 (Herbicidal rate of 40% or more and less than 70%)
16 | CCCC(=O)Oc1c(C)nn(C)c(=O)c1-c1c(-c2ccccc2OCC)sc2cc(C)c(C)cc12 [5-095] |  | 0 (Herbicidal rate of 5% or less (almost no effect))

Tested on: southern crabgrass
Test: Test Example 4: herbicidal effect by soil treatment (Table 19, symbol F)
Format: in vivo, southern crabgrass (Digitaria ciliaris)
Conditions: amount of applied herbicide 320 g/ha
In short: as §4

Row | Compound | Herbicidal effect by soil treatment, F: southern crabgrass | F: southern crabgrass, herbicidal effect grade
17 | COc1ccccc1-c1sc2cc(OCC3CCCO3)ccc2c1-c1c(O)c(C)nn(C)c1=O (stereo not drawn) [3-133] | 2 (Herbicidal rate of 20% or more and less than 40%) | 
18 | COc1ccccc1-c1sc2cc(C)c(C)cc2c1-c1c(O)c(C)nn(C)c1=O [5-090] |  | 0 (Herbicidal rate of 5% or less (almost no effect))
19 | CCCC(=O)Oc1c(C)nn(C)c(=O)c1-c1c(-c2ccccc2OCC)sc2cc(C)c(C)cc12 [5-095] |  | 0 (Herbicidal rate of 5% or less (almost no effect))

Tested on: oval-leafed pondweed
Test: Test Example 2: herbicidal activity, application during weed generation under submerged conditions (Table 17, symbol C)
Format: in vivo, oval-leafed pondweed (Monochoria vaginalis)
Conditions: AAH 320 g/ha; application during weed generation, submerged conditions
In short: as §3

Row | Compound | herbicidal effect rating, C: oval-leafed pondweed
20 | COc1ccccc1-c1sc2cc(OCC3CCCO3)ccc2c1-c1c(O)c(C)nn(C)c1=O (stereo not drawn) [3-133] | 1 (Herbicidal rate of 5% or more and less than 20%)
21 | COc1ccccc1-c1sc2cc(C)c(C)cc2c1-c1c(O)c(C)nn(C)c1=O [5-090] | 0 (Herbicidal rate of 5% or less (almost no effect))
22 | CCCC(=O)Oc1c(C)nn(C)c(=O)c1-c1c(-c2ccccc2OCC)sc2cc(C)c(C)cc12 [5-095] | 4 (Herbicidal rate of 70% or more and less than 90%)

Tested on: chickweed
Test: Test Example 4: herbicidal effect by soil treatment (Table 19, symbol P)
Format: in vivo, common chickweed (Stellaria media)
Conditions: amount of applied herbicide 320 g/ha
In short: as §4

Row | Compound | Herbicidal effect by soil treatment, P: chickweed | P: chickweed, herbicidal effect grade
23 | COc1ccccc1-c1sc2cc(OCC3CCCO3)ccc2c1-c1c(O)c(C)nn(C)c1=O (stereo not drawn) [3-133] | 4 (Herbicidal rate of 70% or more and less than 90%) | 
24 | COc1ccccc1-c1sc2cc(C)c(C)cc2c1-c1c(O)c(C)nn(C)c1=O [5-090] |  | 1 (Herbicidal rate of 5% or more and less than 20%)
25 | CCCC(=O)Oc1c(C)nn(C)c(=O)c1-c1c(-c2ccccc2OCC)sc2cc(C)c(C)cc12 [5-095] |  | 3 (Herbicidal rate of 40% or more and less than 70%)

Tested on: late watergrass
Test: Test Example 1: herbicidal activity, application before weed generation under submerged conditions (Table 16, symbol A)
Format: in vivo, late watergrass (Echinochloa oryzicola)
Conditions: amount of applied herbicide 320 g/ha
In short: as §1

Row | Compound | Herbicidal effect, A: late watergrass
26 | COc1ccccc1-c1sc2cc(OCC3CCCO3)ccc2c1-c1c(O)c(C)nn(C)c1=O (stereo not drawn) [3-133] | 3 (Herbicidal rate of 40% or more and less than 70%)
27 | COc1ccccc1-c1sc2cc(C)c(C)cc2c1-c1c(O)c(C)nn(C)c1=O [5-090] | 3 (Herbicidal rate of 40% or more and less than 70%)
28 | CCCC(=O)Oc1c(C)nn(C)c(=O)c1-c1c(-c2ccccc2OCC)sc2cc(C)c(C)cc12 [5-095] | 5 (Herbicidal rate of 90% or more (almost completely withered))

Tested on: green foxtail
Test: Test Example 5: herbicidal effect by foliage application, plastic box (Table 20, symbol G)
Format: in vivo, green foxtail (Setaria viridis)
Conditions: foliage application, 320 g/ha, three weeks after application
In short: as §2

Row | Compound | G: green foxtail, herbicidal effect grade | herbicidal effect on green foxtail (G)
29 | COc1ccccc1-c1sc2cc(OCC3CCCO3)ccc2c1-c1c(O)c(C)nn(C)c1=O (stereo not drawn) [3-133] | 5 (Herbicidal rate of 90% or more (almost completely withered)) | 
30 | COc1ccccc1-c1sc2cc(C)c(C)cc2c1-c1c(O)c(C)nn(C)c1=O [5-090] |  | 5 (Herbicidal rate of 90% or more (almost completely withered))
31 | CCCC(=O)Oc1c(C)nn(C)c(=O)c1-c1c(-c2ccccc2OCC)sc2cc(C)c(C)cc12 [5-095] |  | 5 (Herbicidal rate of 90% or more (almost completely withered))

Tested on: velvetleaf
Test: Test Example 4: herbicidal effect by soil treatment (Table 19, symbol M)
Format: in vivo, velvetleaf (Abutilon theophrasti)
Conditions: amount of applied herbicide 320 g/ha
In short: as §4

Row | Compound | Herbicidal effect by soil treatment, M: velvetleaf | M: velvetleaf, herbicidal effect grade
32 | COc1ccccc1-c1sc2cc(OCC3CCCO3)ccc2c1-c1c(O)c(C)nn(C)c1=O (stereo not drawn) [3-133] | 1 (Herbicidal rate of 5% or more and less than 20%) | 
33 | COc1ccccc1-c1sc2cc(C)c(C)cc2c1-c1c(O)c(C)nn(C)c1=O [5-090] |  | 0 (Herbicidal rate of 5% or less (almost no effect))
34 | CCCC(=O)Oc1c(C)nn(C)c(=O)c1-c1c(-c2ccccc2OCC)sc2cc(C)c(C)cc12 [5-095] |  | 0 (Herbicidal rate of 5% or less (almost no effect))

Tested on: persian speedwell
Test: Test Example 4: herbicidal effect by soil treatment (Table 19, symbol R)
Format: in vivo, Persian speedwell (Veronica persica)
Conditions: amount of applied herbicide 320 g/ha
In short: as §4

Row | Compound | R: persian speedwell, herbicidal effect grade
35 | COc1ccccc1-c1sc2cc(C)c(C)cc2c1-c1c(O)c(C)nn(C)c1=O [5-090] | 1 (Herbicidal rate of 5% or more and less than 20%)
36 | CCCC(=O)Oc1c(C)nn(C)c(=O)c1-c1c(-c2ccccc2OCC)sc2cc(C)c(C)cc12 [5-095] | 3 (Herbicidal rate of 40% or more and less than 70%)

Tested on: oval-leafed pondweed
Test: Test Example 1: herbicidal activity, application before weed generation under submerged conditions (Table 16, symbol C)
Format: in vivo, oval-leafed pondweed (Monochoria vaginalis)
Conditions: amount of applied herbicide 320 g/ha
In short: as §1

Row | Compound | Herbicidal effect, C: oval-leafed pondweed
37 | COc1ccccc1-c1sc2cc(OCC3CCCO3)ccc2c1-c1c(O)c(C)nn(C)c1=O (stereo not drawn) [3-133] | 4 (Herbicidal rate of 70% or more and less than 90%)
38 | COc1ccccc1-c1sc2cc(C)c(C)cc2c1-c1c(O)c(C)nn(C)c1=O [5-090] | 3 (Herbicidal rate of 40% or more and less than 70%)
39 | CCCC(=O)Oc1c(C)nn(C)c(=O)c1-c1c(-c2ccccc2OCC)sc2cc(C)c(C)cc12 [5-095] | 4 (Herbicidal rate of 70% or more and less than 90%)

Tested on: wild oat
Test: Test Example 4: herbicidal effect by soil treatment (Table 19, symbol I)
Format: in vivo, wild oat (Avena fatua)
Conditions: amount of applied herbicide 320 g/ha
In short: as §4

Row | Compound | Herbicidal effect by soil treatment, I: wild oat | I: wild oat, herbicidal effect grade
40 | COc1ccccc1-c1sc2cc(OCC3CCCO3)ccc2c1-c1c(O)c(C)nn(C)c1=O (stereo not drawn) [3-133] | 1 (Herbicidal rate of 5% or more and less than 20%) | 
41 | COc1ccccc1-c1sc2cc(C)c(C)cc2c1-c1c(O)c(C)nn(C)c1=O [5-090] |  | 0 (Herbicidal rate of 5% or less (almost no effect))
42 | CCCC(=O)Oc1c(C)nn(C)c(=O)c1-c1c(-c2ccccc2OCC)sc2cc(C)c(C)cc12 [5-095] |  | 0 (Herbicidal rate of 5% or less (almost no effect))

Tested on: barnyard grass
Test: Test Example 3: herbicidal effect by foliage application, Wagner pot (Table 18, symbol H)
Format: in vivo, barnyard grass (Echinochloa crus-galli)
Conditions: 320 g/ha
In short: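 Plants were sown in alluvial soil held under 0.1–0.5 cm standing water and grown 14 days in a greenhouse at 25–30 °C. An emulsifiable formulation, water-diluted to the set dose, was then sprayed onto the foliage, and effects were scored three weeks later using previously defined criteria.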

Row | Compound | herbicidal effect on barnyard grass (H)
43 | COc1ccccc1-c1sc2cc(OCC3CCCO3)ccc2c1-c1c(O)c(C)nn(C)c1=O (stereo not drawn) [3-133] | 3 (Herbicidal rate of 40% or more and less than 70%)
44 | COc1ccccc1-c1sc2cc(C)c(C)cc2c1-c1c(O)c(C)nn(C)c1=O [5-090] | 5 (Herbicidal rate of 90% or more (almost completely withered))
45 | CCCC(=O)Oc1c(C)nn(C)c(=O)c1-c1c(-c2ccccc2OCC)sc2cc(C)c(C)cc12 [5-095] | 5 (Herbicidal rate of 90% or more (almost completely withered))
